In patent publication US4104384A, “1-(2'-Aroyl eth-1'yl) 2-(4"-acetamido piperazine-1"yl methyl) benzimidazoles and their therapeutical applications” (priority 1975, dated 1978):

Columns and labels:
gastric secretion = assay: Gastric antisecretory properties: gastric secretion after Shay ligature, intraduodenal; type: in vivo; conditions: intraduodenal, rat, read-out: Reduction of volume of gastric secretion
Text: Administered intraduodenally to a rat, the compounds of formula (I) are capable of reducing gastric secretion measured after Shay ligature.

stress ulcers = assay: Anti-ulcerous properties: ulcerations in rat under stress for 7 hours, oral; type: in vivo; conditions: po, read-out: Percentage reduction of stress ulcers
Shay's ulcer = assay: Anti-ulcerous properties: ulceration caused by ligature of the pylorus (Shay's ulcers), intraduodenal; type: in vivo; conditions: rat, read-out: Percentage reduction of Shay's ulcer
Text: Furthermore, the compounds of formula (I) administered intraduodenally reduce the ulceration area caused by ligature of the pylorus of a rat (Shay's ulcers).

jejunal ansa of a rabbit = assay: Spasmolytic in vivo: contractions of the jejunal ansa caused by electric stimulation; conditions: 26.5 mg/kg/i.d.
Text: (§1) The compounds of formula (I), administered intraduodenally are capable of reducing the contractions of the jejunal ansa of a rabbit, caused by electric stimulation.

[1] = tested on: uterine horn of a female rabbit; assay: Spasmolytic in vivo: contractions of the uterine horn caused by electric stimulation; conditions: 53 mg/kg/i.d.
Description: as §1
The same test was studied with the uterine horn of a female rabbit.
For example, compound No 73.0442, administered at a dose of 53 mg/kg/i.d. reduces by 85 % for more than an hour, the contractions of the uterine horn of a female rabbit caused by electric stimulation.

[2] = tested on: bronchoconstriction caused by acetylcholine; assay: Anticholinergic and antibronchoconstrictive: bronchoconstriction by intravenous acetylcholine, Konzett's method; type: in vivo; conditions: Cavia porcellus, intraduodenal; guinea-pig, i.d., 25 mg/kg; read-out: Percentage inhibition of the bronchoconstriction
Text: Injected intravenously or intraduodenally, the compounds of formula (I) are capable of opposing bronchoconstriction caused in a guinea-pig by intravenous injection of acetylcholine and evaluated by Konzett's method.

painful stretchings = assay: Analgesic: painful stretchings following intraperitoneal injection of acetic acid; type: in vivo; conditions: po; mouse, 100 mg/kg/p.o.; read-out: Percentage diminution painful stretchings
Text: The compounds of formula (I), administered orally to a mouse, are capable of reducing the number of painful stretchings following intraperitioneal injection of acetic acid.

[3] = Acute toxicity, lethal dose 50; conditions: mouse, in vivo, po, read-out: Lethal dose 50 (mouse) / DL 50 (mouse) (converted)
arterial pressure = assay: Anti-hypertensive: arterial pressure in genetically hyperstressed vigil rats (S.H.R.); type: in vivo, rat; conditions: 10 mg/kg/p.o., 4 hours
Description: The compounds of formula (I) are capable, 4 hours after their oral injection, of bringing the arterial pressure down to normal in genetically hyperstressed vigil rats (S.H.R.).

volume of urine emitted = assay: Diuretic: volume of urine emitted; type: in vivo; conditions: po; rat, urine volume for 6 hours following administration; read-out: DE 50 (diuretic)
Description: The compounds of formula (I), administered orally to a rat, increase the volume of urine emitted, relative to controls, the volume being measured for the 6 hours following administration.

Row | SMILES | inhibition in vivo at 2.1 mg/kg (gastric secretion; 2.1 mg/kg/i.d.) | inhibition in vivo at 5.2 mg/kg (stress ulcers; 5.2 mg/kg/p.o.) | inhibition in vivo at 7.6 mg/kg (Shay's ulcer; 7.6 mg/kg/i.d.) | Diminution of contractions of the jejunum for more than an hour (jejunal ansa of a rabbit) | reduction of the contractions of the uterine horn for more than an hour [1] | inhibition in vivo at 25 mg/kg [2] | inhibition in vivo at 100 mg/kg (painful stretchings) | LD50 [3] | inhibition in vivo at 25 mg/kg (gastric secretion; 25 mg/kg/i.d.) | inhibition in vivo at 20 mg/kg (stress ulcers; 20 mg/kg/p.o.) | inhibition in vivo at 40 mg/kg (Shay's ulcer; 40 mg/kg/i.d.) | arterial pressure brought down to normal (arterial pressure) | ED50 (volume of urine emitted)
1 | CC(C)NC(=O)CN1CCN(Cc2nc3ccccc3n2CCC(=O)c2ccccc2)CC1 [73 0442] | 68% | 99% | 88% | 67% | 85% | 100% | 80% | 798 mg/kg | – | – | – | – | –
2 | COc1ccccc1C(=O)CCn1c(CN2CCN(CC(=O)NC(C)C)CC2)nc2ccccc21 [75 0011] | – | – | – | – | – | – | – | 120 mg/kg | 75% | 51% | 78% | 4 animals out of 7 | 1 mg/kg
